Laboratory results: patent US11339119B2, “Crystal form and amorphous form of dezocine analogue hydrochloride” (Shandong Danhong Pharmaceutical Co., Ltd., priority 2017, dated 2022)
≈ marks a conversion by molar mass, not a printed value. Where “and” joins values, the source holds several entries; their conditions need not be identical. Identical values can stand only once. Entries after “also recorded” stand apart in the source; their conditions may differ.

Columns and labels:
[1] = Solid stability test of amorphous form (HPLC content and total impurity); format: physicochemical
Description: 1.5 High Performance Liquid Chromatograph (HPLC) • Instrument model: Agilent 1200 high performance liquid chromatograph • The analysis method is as follows:
Stability of amorphous form sample under conditions of high temperature, high humidity (40° C./RH 75.0%, closed) and acceleration.
About 1.4 g of sample was put into a double-layer LDPE bag, each layer of LDPE bag was fastened and sealed respectively, then the LDPE bag and a medicinal desiccant were put into an aluminum-foil bag and sealed by heating, under conditions of high temperature and high humidity, a sample was taken on the 30th day for detection, and a detection result was compared with an initial detection result on the 0th day.

[2] = Equilibrium solubility of amorphous form sample in different pH media; format: physicochemical; conditions: for solubility at 24 h: thermodynamic from solid
Description: An equilibrium solubility of an amorphous form sample in pH 1.0/2.0 (hydrochloric acid solution), pH 3.8/4.5/5.5 (acetate buffer solution), pH 6.0/6.8/7.4 (phosphate buffer solution) and water was detected (prepared according to the Technical Guiding Principles for Dissolution Rate Test of Ordinary Oral Solid Preparations of Chinese Pharmacopoeia).
5 mL of different media (pH 1.0, pH 2.0, pH 3.8, pH 4.5, pH 5.5, pH 6.0, pH 6.8 and pH 7.4 buffer solutions and pure water) were respectively added into nine 8 mL glass bottles, and an appropriate amount of amorphous form sample was added respectively to make the mixture a suspension. Magnetic stirring bars were added into the sample above, which are placed on a magnetic stirrer to stir (at a temperature of 37° C.).
The sample was centrifuged after 24 h, and a supernatant was taken from an upper sample to determine a concentration thereof by HPLC and a pH value thereof (results shown in Table 4).

[3] = Hygroscopicity test of amorphous form sample; format: physicochemical; conditions: 25° C., 24 h
Description: A hygroscopicity of an amorphous form sample was detected. (The hygroscopicity of the compound was determined according to the method in the General Rules of the Chinese Pharmacopoeia (2015 Version) Volume IV).
Three dry glass weighing bottles with stoppers were weighed, the results of which were recorded as m1 1, m1 2 and m1 3. An appropriate amount of crude drug sample was spread in the weighed weighing bottles (the sample has a thickness of about 1 mm), then accurately weighed and recorded as m2 1, m2 2 and m2 3. The weighing bottles were open and placed together with bottle caps in a dryer with saturated ammonium chloride solution at a lower part, the dryer was covered, then the dryer was placed in a thermostat at 25° C. for 24 h. After being placed for 24 h, the weighing bottles were covered, then taken out for accurate weighing, the results of which were recorded as m3 1, m3 2 and m3 3. Weight increase by hygroscopicity was calculated, and the calculation formula was as follows: weight increase percentage=100%×(m3−m2)/(m2−m1).

[4] = Solid stability test of crystal form (XRPD); format: physicochemical
Description: According to the Guiding Principles for Stability Experiment of Crude Drugs and Preparations (General Rules 9001 of Chinese Pharmacopoeia (2015 Version) Volume IV), a stability of a compound placed under conditions of high temperature (60° C., open), high humidity (RT/92.5% RH, open) and illumination (50001×, closed) for 5 days and 10 days were investigated.
An appropriate amount of a crystal form sample of a compound represented by formula (I) was placed at a bottom of a glass sample bottle and spread into a thin layer. The sample placed under the conditions of high temperature and high humidity was sealed with aluminum-foil paper, and small holes were punched in the aluminum-foil paper to ensure that the sample could be fully contacted with ambient air. The sample placed under the condition of illumination (50001×) was sealed with a bottle cap and further sealed with a sealing film, the sample was sealed and placed at a room temperature, and XRPD detection was performed on the 5th day and the 10th day.

[5] = Pharmacokinetic study, intramuscular injection in mouse; format: in vivo, SD mouse; conditions: sesame oil suspension
Description: Through the experiment of drug metabolism in a mouse, the metabolism of the compound in the mouse is evaluated by taking Cmax, t1/2, AUC, MRT and B/P ratio in vivo as indexes.
A test compound was mixed with an appropriate amount of sesame oil, and the mixture was vortexed and ultrasonically processed to obtain an even suspension of 25 μmol/mL. A SD mouse aged 6 weeks to 9 weeks (Shanghai SLAC Laboratory Animal Co., Ltd) was selected and intramuscularly injected with a suspension of the test compound at a dose of 20 μmol/kg or 40 μmol/kg. Whole blood of a certain period of time was collected, and a precipitant (acetonitrile, methanol and internal standard for analysis) was added and centrifuged. A supernatant solution was analyzed for a drug concentration by a LC-MS/MS method (if the test drug was the prodrug, concentrations of the prodrug and the hydrolyzed parent drug were analyzed simultaneously), and pharmacokinetic parameters were calculated by Phoenix WinNonlin software (Pharsight Company of the United States).

[6] = High temperature and high humidity (40° C./RH 75.0%, close), 30 days

For C[C@@]12CCCCC[C@@H](Cc3c(F)cc(OC(=O)CCCCCCCCC(=O)Oc4cc(F)c5c(c4)[C@@]4(C)CCCCC[C@@H](C5)[C@@H]4N)cc31)[C@@H]2N [listing 1 of 2 here], the Content ([1]; 0 day) was 99.3%, the Total impurity ([1]; 0 day) was 1.56% and the Content [1, 6] was 97.8%. The Total impurity [1, 6] was 1.96%, the “Solid stability of amorphous form (conclusion in words)” value ([1]; high temperature, high humidity and sealing, 30 days) was “relatively stable” and the solubility at 24 h ([2]; 0.01 N HCl, simulated gastric fluid, 0.01 NHCl, final pH 2.01, 37° C., 24 h) was 1630 µg/mL (≈ 2.35 mM). For the same molecule, the solubility at 24 h ([2]; 0.1 N HCl, simulated gastric fluid, 0.1 NHCl, final pH 1.02, 37° C., 24 h) was 398 µg/mL (≈ 0.574 mM), the solubility at 24 h ([2]; aqueous buffer, pH 3.8 buffer solution (acetate), final pH 3.68, 37° C., 24 h) was 15100 µg/mL (≈ 21.8 mM) and the solubility at 24 h ([2]; aqueous buffer, pH 4.5 buffer solution (acetate), final pH 4.48, 37° C., 24 h) was 19600 µg/mL (≈ 28.3 mM). It also gave a solubility at 24 h ([2]; aqueous buffer, pH 5.5 buffer solution (acetate), final pH 5.25, 37° C., 24 h) of 18700 µg/mL (≈ 27 mM), a solubility at 24 h ([2]; aqueous buffer, pH 6.0 buffer solution (phosphate), final pH 5.89, 37° C., 24 h) of 13 µg/mL (≈ 0.0188 mM) and a solubility at 24 h ([2]; aqueous buffer, pH 6.8 buffer solution (phosphate), final pH 6.75, 37° C., 24 h) of 3 µg/mL (≈ 0.00433 mM). The “Solubility (in words)” value ([2]; hydrochloric acid solution, acetate buffer solution and water) was “easily soluble”, the Solubility ([2]; pH 7.4 buffer solution (phosphate), final pH 7.20, 37° C., 24 h, LOQ = 0.0003 mg/mL) was “<LOQ” and the “Solubility (in words)” value ([2]; phosphate buffer solution) was “slightly soluble or insoluble”. For the same molecule, the solubility at 24 h ([2]; pure water, Water, final pH 4.28, 37° C., 24 h) was 13500 µg/mL (≈ 19.5 mM), the “Hygroscopicity (in words)” value [3] was “had hygroscopicity” and the “Weight increase percentage, average value” ([3]; average of three samples, over saturated ammonium chloride solution) was 5.24%. The Weight increase percentage ([3]; single samples 1-3, over saturated ammonium chloride solution) was 5.790% and 5.215% and 4.714%.

With C[C@@]12CCCCC[C@@H](Cc3c(F)cc(OC(=O)CCCCCCCCC(=O)Oc4cc(F)c5c(c4)[C@@]4(C)CCCCC[C@@H](C5)[C@@H]4N)cc31)[C@@H]2N [listing 2 of 2 here] the “Crystal form (MOD)” value ([4]; 0 day, initial) was “Crystal form of compound represented”, the “Crystal form (MOD)” value ([4]; High humidity (RT/RH 92.5%, open), 5 days) was “Crystal form of compound represented” and the “Crystal form (MOD)” value ([4]; High humidity (RT/RH 92.5%, open), 10 days) was “Crystal form of compound represented”. The “Crystal form (MOD)” value ([4]; High temperature (60° C., open), 5 days) was “Crystal form of compound represented”, the “Crystal form (MOD)” value ([4]; High temperature (60° C., open), 10 days) was “Crystal form of compound represented” and the “Crystal form (MOD)” value ([4]; Illumination (5000lx, closed), 5 days) was “Crystal form of compound represented”. For the same molecule, the “Crystal form (MOD)” value ([4]; Illumination (5000lx, closed), 10 days) was “Crystal form of compound represented” and the “Solid stability of crystal form (conclusion in words)” value ([4]; high temperature, high humidity and illumination, 5 and 10 days vs 0 day) was “did not change; also recorded: stable under the conditions of high temperature, high humidity and illumination without any change”.

In the case of C[C@@]12CCCCC[C@@H](Cc3c(F)cc(OC(=O)CCCCCCCCC(=O)Oc4cc(F)c5c(c4)[C@@]4(C)CCCCC[C@@H](C5)[C@@H]4N)cc31)[C@@H]2N [Compound B], the “Release and hydrolysis in vivo (in words)” value [5] was “slowly released in vivo after intramuscular injection and quickly hydrolyzed into the parent drug compound A”.
